These are literature values, as cited in patent US12611671B2, “Methods, systems and kits for in-pen assays” (Bruker Cellular Analysis, Inc., priority 2016, dated 2026).

The target in this data set is IgG. As to conditions: (Fc); read-out: Affinity for IgG.

Consider “DCAWHLGELVWCT [CPD 4, Asp Cys Ala Trp His Leu Gly Glu Leu Val Trp Cys Thr]”, for which the Kd is 100 nM.
